{"source": "patent US20070027073A1", "about": "“Long-acting derivatives of pyy agonists” (priority 2003, published 2007)", "origin": "cited, not measured here", "settings": "in vivo"}
{"smiles": "CCCCCCCCCCC[C@@H](C[C@@H]1OC(=O)[C@H]1CCCCCC)OC(=O)[C@H](CC(C)C)NC=O", "note": "[Orlistat]", "values": [{"measurement": "reduction of fat adsorption through the gut", "value": "about one third"}]}
